One data set deals with urinary podocytes. In words: Podocyturia assay: urinary cells stained for podocin immunoreactivity. As to conditions: for Cells/HPF (urinary podocytes): 400 × high power field, individual cancer patients on anti-VEGF therapy, Table 1. Type of data set: in vivo, human. The procedure:
A random urine sample (25-50 mL each) was centrifuged for 8 minutes at 700 g at room temperature. The pellets were rinsed twice with […]. Next, the pellets were resuspended in Dulbecco's modified eagle's medium (DMEM) F-12 medium with 10% fetal bovine serum that was supplemented with antibiotics for the prevention of bacterial contamination. A one-milliliter aliquot was plated on a collagen-coated tissue culture slide, which was followed by overnight incubation at 37° C. in 5% CO2. The next day, the media were removed, followed by two phosphate-buffered saline solution washes. The slide was fixed with 1 mL of ice cold methanol for 10 minutes at −20° C. The slide was incubated with antibodies to podocin (dilution, 1:200). After being washed with phosphate-buffered saline solution, a secondary fluorescein isothiocyanate-labeled antibody was added at a dilution of 1:40 for 30 minutes. The sediment was counterstained with Hoechst nuclear stain to facilitate differentiation of whole cells from cell fragments. Coverslips were mounted with Vectashield (Vector Labs, Burlington, Calif.), and the slides were viewed with a fluorescence microscope (Leica, Germany). Nucleated, positive-staining cells were considered to be podocytes. A renal pathologist, who was blinded to the clinical diagnosis and laboratory findings, evaluated each sample to determine the number of cells that were present and the percentage of cells that were stained for podocin.

A short description of data set [1]: Proteinuria in patients on anti-VEGF therapy. Type of data set: in vivo, human. The procedure: The following was performed to determine whether podocyturia is present in patients who, while undergoing anti-VEGF therapy, develop proteinuria (Table 1). In addition, urinary podocyte excretion was compared among patients on anti-VEGF therapy with proteinuria ranging from 101 to 9720 mg/d (Table 1).

A short description of data set [2]: Renal function (creatinine, GFR) in patients on anti-VEGF therapy. Conditions: for GFR: individual cancer patients on anti-VEGF therapy, Table 1.
In data set [3] the test system is renal cell carcinoma, clear cell type. In words: Clinical course of a renal cell carcinoma patient on sunitinib therapy. Type of data set: in vivo, human. Conditions: person, four months into therapy. From the text:
They subsequently underwent a right radical nephrectomy and retroperitoneal lymphadenectomy.

Values joined by “and” are separate entries in the source; they are usually repeats but may differ in a detail not shown here. Identical values can stand only once. Bounds are passed on as bounds.

Turning to `CNC(=O)c1cc(Oc2ccc(NC(=O)Nc3ccc(Cl)c(C(F)(F)F)c3)cc2)ccn1` [S/nib, sorafenib], the “Cells/HPF (urinary podocytes)” value with urinary podocytes is >9 Cells/HPF and 1 Cells/HPF. Moreover, the Proteinuria in data set [1] (individual cancer patients on anti-VEGF therapy, Table 1) is 9720 mg/day and 101 mg/day. In addition, the GFR in data set [2] is 70 and 39.
In the case of `CCN(CC)CCNC(=O)c1c(C)[nH]c(/C=C2\C(=O)Nc3ccc(F)cc32)c1C` [Sunitinib], the “Cells/HPF (urinary podocytes)” value with urinary podocytes is over 3 Cells/HPF. Moreover, the “presence of urinary podocytes” value in the data set on urinary podocytes (person, after seven months of therapy, FIG. 1) is listed as “presence of urinary podocytes was confirmed”. Further, in data set [1] (human, in vivo), the Proteinuria came to 2112 mg/day, the “predicted 24 hour protein” value is given as 931 mg and the “protein in 24 hours” value turned out to be 467 mg. For the same compound, in data set [3], the Additional side effects result is “hypertension, hand and foot syndrome, and drug-induced hypothyroidism”. Moreover, the “kidney function, as per creatinine measurements” value in data set [2] (after the regimen was changed and the dose was decreased) is “improved”. Moreover, the GFR in data set [2] came out at 43. In data set [2] (person, after seven months of therapy), this compound had a creatinine of 1.3. Also, the peak creatinine in data set [2] (person, four months into therapy) came out at 1.5.
In the case of bevacizumab, in data set [1] (human, in vivo), the “Proteinuria (dipstick)” value is given as 1 + dipstick.

Values taken from patent US10336822B2, “Early marker of proteinuria in patients treated with an anti-VEGF treatment” (Mayo Foundation for Medical Education and Research, priority 2009, dated 2019).
